Patent US7482365B2, “Piperidylcarboxamide derivatives and their use in the treatment of tachykinin-mediated diseases” (Glaxo Group Limited, priority 2002, dated 2009)

## Cc1cc(F)ccc1[C@H]1C[C@H](N(C)C)CCN1C(=O)N(C)Cc1cc(C(F)(F)F)cc(C(F)(F)F)c1.Cl
  melting point: 180 to 183 °C

## Cc1cc(F)ccc1[C@H]1C[C@H](NCCF)CCN1C(=O)N(C)Cc1cc(C(F)(F)F)cc(C(F)(F)F)c1.Cl
  melting point: 145 to 146 °C

## Cc1cc(F)ccc1[C@H]1C[C@@H](NCC(N)=O)CCN1C(=O)N(C)Cc1cc(C(F)(F)F)cc(C(F)(F)F)c1.Cl
  melting point: 100 to 101 °C

## Cc1cc(F)ccc1[C@H]1C[C@H](NCC(N)=O)CCN1C(=O)N(C)Cc1cc(C(F)(F)F)cc(C(F)(F)F)c1.Cl
  melting point: 130 to 131 °C

## Cc1cc(F)ccc1[C@H]1C[C@@H](N(C)C)CCN1C(=O)N(C)Cc1cc(C(F)(F)F)cc(C(F)(F)F)c1.Cl
  melting point: 147 to 150 °C
